In brackets after ≈: the same amount, converted by molar mass. Where a SMILES comes first, the peptide text is derived from it. The star is where a group is joined. Palmitoyl = CCCCCCCCCCCCCCCC(=O)*; Myristoyl = CCCCCCCCCCCCCC(=O)*
Experiments:
Type in all cases: cell-based
[1] = tested on: Pseudomonas aeruginosa (ATCC 9027); conditions: ATCC 9027, 24 h
[2] = tested on: human red blood cells; conditions: 1 h
In short: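 Washed donor erythrocytes (4% v/v in PBS, EDTA-anticoagulated) incubated with graded lipopeptide concentrations for 1 h at 37 °C; hemoglobin release read at 550 nm in supernatants. Scaled between 0.1% Triton X-100 (100%) and PBS (0%); MHC is the lowest concentration giving 10% hemolysis.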

[3] = tested on: Candida albicans (ATCC 10231)
[4] = tested on: Escherichia coli (ATCC 25922); conditions: for MBC Escherichia coli, lipopeptides without TFA counter ion / MIC Escherichia coli / MIC Escherichia coli, lipopeptides without TFA counter ion: ATCC 25922, 18 h; for MBC Escherichia coli: ATCC 25922, 24 h
In short: (§1)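 Broth microdilution per CLSI: Mueller-Hinton broth, 10^5 cfu/mL inoculum, 18 h at 37°C for bacteria; Sabouraud dextrose broth, 10^3 cfu/mL, 48 h at 25°C for fungi. MIC (μg/mL) is the lowest lipopeptide concentration inhibiting visible growth; MBC/MFC also determined. Triplicate on three days.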

[5] = tested on: Proteus vulgaris (PCM 2668); conditions: 18 h
In short: as §1

[6] = tested on: Candida tropicalis (PCM 2681); conditions: PCM 2681, 48 h
In short: as §1

[7] = tested on: Aspergillus brasiliensis (ATCC 16404); conditions: ATCC 16404, 48 h
In short: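 Lowest lipopeptide concentration (μg/mL) with no observable growth gave the MIC, alongside MBC/MFC, by CLSI microbroth dilution. Fungi: Sabouraud dextrose broth, 10^3 cfu/mL start, 25°C for 48 h; bacteria: MH broth, 10^5 cfu/mL, 37°C for 18 h. Run in triplicate, three separate days.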

[8] = tested on: Staphylococcus aureus (ATCC 25923); conditions: for MBC Staphylococcus aureus, lipopeptides without TFA counter ion / MIC Staphylococcus aureus / MIC Staphylococcus aureus, lipopeptides without TFA counter ion: ATCC 25923, 18 h; for MBC Staphylococcus aureus: ATCC 25923, 24 h
In short: as §1

[9] = tested on: Candida albicans (ATCC 10231); conditions: ATCC 10231, 48 h
In short: as §1

[10] = tested on: Staphylococcus epidermidis (PCM 2118); conditions: for MIC Staphylococcus epidermidis: PCM 2118, 18 h; for MBC Staphylococcus epidermidis: PCM 2118, 24 h
In short: as §1

[11] = tested on: Bacillus subtilis (ATCC 6633); conditions: for MIC Bacillus subtillis: ATCC 6633, 18 h; for MBC Bacillus subtillis: ATCC 6633, 24 h
In short: as §1

[12] = tested on: Klebsiella pneumoniae (ATCC 700603); conditions: for MBC Klebsiella pneumoniae, lipopeptides without TFA counter ion / MIC Klebsiella pneumoniae / MIC Klebsiella pneumoniae, lipopeptides without TFA counter ion: ATCC 700603, 18 h; for MBC Klebsiella pneumoniae: ATCC 700603, 24 h
In short: as §1

[13] = tested on: Pseudomonas aeruginosa (ATCC 9027); conditions: ATCC 9027, 18 h
In short: as §1

[14] = tested on: Enterococcus faecalis (ATCC 29212); conditions: for MBC Enterococcus fecalis, lipopeptides without TFA counter ion / MIC Enterococcus fecalis / MIC Enterococcus fecalis, lipopeptides without TFA counter ion: ATCC 29212, 18 h; for MBC Enterococcus fecalis: ATCC 29212, 24 h
In short: as §1

[15] = tested on: Proteus vulgaris (PCM 2668); conditions: 24 h

| MIC Escherichia coli [4] [µg/mL] | MIC Proteus vulgaris [5] [µg/mL] | MIC Candida tropicalis [6] [µg/mL] | MIC Aspergillus brasiliensis [7] [µg/mL] | MIC Staphylococcus aureus [8] [µg/mL] | MIC Candida albicans [9] [µg/mL] | MIC Staphylococcus epidermidis [10] [µg/mL] | Compound | MBC Pseudomonas aeruginosa [1] [µg/mL] | Hemolysis HC10 (MHC), concentration of lipopeptide inducing 10% of hemolysis [2] [µg/mL] | MFC Candida albicans, lipopeptides without TFA counter ion [3] [µg/mL] | MBC Escherichia coli, lipopeptides without TFA counter ion [4] [µg/mL] | MIC Escherichia coli, lipopeptides without TFA counter ion [4] [µg/mL] | MBC Escherichia coli [4] [µg/mL] | MFC Candida tropicalis [6] [µg/mL] | MFC Aspergillus brasiliensis [7] [µg/mL] | MBC Staphylococcus aureus, lipopeptides without TFA counter ion [8] [µg/mL] | MIC Staphylococcus aureus, lipopeptides without TFA counter ion [8] [µg/mL] | MBC Staphylococcus aureus [8] [µg/mL] | MFC Candida albicans [9] [µg/mL] | MIC Candida albicans, lipopeptides without TFA counter ion [9] [µg/mL] | also measured |
| --- | --- | --- | --- | --- | --- | --- | --- | --- | --- | --- | --- | --- | --- | --- | --- | --- | --- | --- | --- | --- | --- |
| 256 (≈ 346 µM) | >512 | 128 (≈ 173 µM) | 64 (≈ 86.5 µM) | 128 (≈ 173 µM) | 128 (≈ 173 µM) | 16 (≈ 21.6 µM) | CCCCCCCCCCCCCC(=O)N[C@@H](CCCCN)C(=O)N[C@@H](CCCCN)C(=O)N[C@@H](CCCCN)C(=O)N[C@@H](CCCCN)C(N)=O [C14-KKKK-NH2] (Myristoyl-KKKK-NH2) | 512 (≈ 692 µM) | 256 | 256 (≈ 346 µM) | 256 (≈ 346 µM) | 256 (≈ 346 µM) | 256 (≈ 346 µM) | 128 (≈ 173 µM) | 64 (≈ 86.5 µM) | 128 (≈ 173 µM) | 128 (≈ 173 µM) | 128 (≈ 173 µM) | 128 (≈ 173 µM) | 256 (≈ 346 µM) | MBC Staphylococcus epidermidis [10]: 16 µg/mL (≈ 21.6 µM); MIC Bacillus subtillis [11]: 4 µg/mL (≈ 5.4 µM); MBC Bacillus subtillis [11]: 4 µg/mL (≈ 5.4 µM); MBC Klebsiella pneumoniae, lipopeptides without TFA counter ion [12]: 128 µg/mL (≈ 173 µM); MIC Klebsiella pneumoniae [12]: 128 µg/mL (≈ 173 µM); MIC Klebsiella pneumoniae, lipopeptides without TFA counter ion [12]: 128 µg/mL (≈ 173 µM); MBC Klebsiella pneumoniae [12]: 256 µg/mL (≈ 346 µM); MIC Pseudomonas aeruginosa [13]: 256 µg/mL (≈ 346 µM); MBC Enterococcus fecalis, lipopeptides without TFA counter ion [14]: 64 µg/mL (≈ 86.5 µM); MIC Enterococcus fecalis [14]: 64 µg/mL (≈ 86.5 µM); MIC Enterococcus fecalis, lipopeptides without TFA counter ion [14]: 64 µg/mL (≈ 86.5 µM); MBC Enterococcus fecalis [14]: 64 µg/mL (≈ 86.5 µM); MBC Proteus vulgaris [15]: >512 µg/mL |
| 512 (≈ 1330 µM) | >512 | >512 | >512 | 512 (≈ 1330 µM) | 512 (≈ 1330 µM) | 8 (≈ 20.9 µM) | CCCCCCCCCCCCCCCC(=O)N[C@@H](CCCCN)C(N)=O [C16-K-NH2] | >512 | 512 | 512 (≈ 1330 µM) | 512 (≈ 1330 µM) | 512 (≈ 1330 µM) | >512 | >512 | >512 | 128 (≈ 334 µM) | 128 (≈ 334 µM) | 512 (≈ 1330 µM) | 512 (≈ 1330 µM) | 512 (≈ 1330 µM) | MBC Staphylococcus epidermidis [10]: 16 µg/mL (≈ 41.7 µM); MIC Bacillus subtillis [11]: 8 µg/mL (≈ 20.9 µM); MBC Bacillus subtillis [11]: 8 µg/mL (≈ 20.9 µM); MBC Klebsiella pneumoniae, lipopeptides without TFA counter ion [12]: 512 µg/mL (≈ 1330 µM); MIC Klebsiella pneumoniae [12]: 512 µg/mL (≈ 1330 µM); MIC Klebsiella pneumoniae, lipopeptides without TFA counter ion [12]: 512 µg/mL (≈ 1330 µM); MBC Klebsiella pneumoniae [12]: >512 µg/mL; MIC Pseudomonas aeruginosa [13]: 512 µg/mL (≈ 1330 µM); MBC Enterococcus fecalis, lipopeptides without TFA counter ion [14]: 32 µg/mL (≈ 83.4 µM); MIC Enterococcus fecalis [14]: 32 µg/mL (≈ 83.4 µM); MIC Enterococcus fecalis, lipopeptides without TFA counter ion [14]: 32 µg/mL (≈ 83.4 µM); MBC Enterococcus fecalis [14]: 64 µg/mL (≈ 167 µM); MBC Proteus vulgaris [15]: >512 µg/mL |
| 256 (≈ 581 µM) | >512 | 256 (≈ 581 µM) | 512 (≈ 1160 µM) | 8 (≈ 18.2 µM) | 128 (≈ 290 µM) | 4 (≈ 9.08 µM) | CCCCCCCCCCCCCCCC(=O)N[C@@H](CCCCN)C(=O)NCC(N)=O [C16-KG-NH2] (Palmitoyl-Lys-Gly-NH2) | 1000 (≈ 2270 µM) | 256 | 128 (≈ 290 µM) | 256 (≈ 581 µM) | 256 (≈ 581 µM) | 256 (≈ 581 µM) | 512 (≈ 1160 µM) | 512 (≈ 1160 µM) | 4 (≈ 9.08 µM) | 4 (≈ 9.08 µM) | 8 (≈ 18.2 µM) | 128 (≈ 290 µM) | 128 (≈ 290 µM) | MBC Staphylococcus epidermidis [10]: 4 µg/mL (≈ 9.08 µM); MIC Bacillus subtillis [11]: 4 µg/mL (≈ 9.08 µM); MBC Bacillus subtillis [11]: 4 µg/mL (≈ 9.08 µM); MBC Klebsiella pneumoniae, lipopeptides without TFA counter ion [12]: 256 µg/mL (≈ 581 µM); MIC Klebsiella pneumoniae [12]: 128 µg/mL (≈ 290 µM); MIC Klebsiella pneumoniae, lipopeptides without TFA counter ion [12]: 128 µg/mL (≈ 290 µM); MBC Klebsiella pneumoniae [12]: 256 µg/mL (≈ 581 µM); MIC Pseudomonas aeruginosa [13]: 256 µg/mL (≈ 581 µM); MBC Enterococcus fecalis, lipopeptides without TFA counter ion [14]: 8 µg/mL (≈ 18.2 µM); MIC Enterococcus fecalis [14]: 16 µg/mL (≈ 36.3 µM); MIC Enterococcus fecalis, lipopeptides without TFA counter ion [14]: 4 µg/mL (≈ 9.08 µM); MBC Enterococcus fecalis [14]: 16 µg/mL (≈ 36.3 µM); MBC Proteus vulgaris [15]: >512 µg/mL |

From paper PMC5285354, “Cationic Net Charge and Counter Ion Type as Antimicrobial Activity Determinant Factors of Short Lipopeptides” (Frontiers in Microbiology, 2017)
